Assay results: patent US7335735B2, “Intracellular estradiol binding protein” (Cedars-Sinai Medical Center, priority 2003, dated 2008)
“Also recorded” adds a separate entry of the source. Blank lines part the entries; values can stand above or below the molecule they belong to.

How the values were obtained:
hsp27 = test: Western blot analysis of hsp27 expression in wild-type breast cells; format: cell-based, Old World primate; details: wild-type control cells, Western blot with anti-hsp27 antibody
[1] = system: ERE-directed transactivation; test: ERE-promoter-reporter luciferase assay, transient co-transfection; format: cell-based, Old World primate
glucocorticoid receptors = details: New World primate cells; cited from earlier work
[2] = system: ERE-directed transactivation; test: ERE luciferase reporter assay in cells stably transfected with IEBP; format: cell-based, Old World primate; details: stable transfectants compared with wild-type cells
Experimental: E2-responsive OWP breast cells from cell line 6299 were incubated with 5.0 ug pcDNA3.1/v5-His-TOPO IEBP plasmid in LIPOTAXI solution for 5 hours followed by the addition of equal volume of 20% FCS-supplemented medium. After incubation overnight, cells were split (1:10 ratio) and incubated with fresh medium containing 500 ug/ml of the geneticin-selective antibiotic G418 sulfate (Life Technology; Grand Island, N.Y.). This medium was replaced every 3-4 days, until stable colonies formed. Single colonies were picked, transferred into a new dish, and incubated with medium containing selection antibiotic G418 until confluence for further study.
Experiments were therefore carried out to clarify whether the overexpression of IEBP antagonized, facilitated, or did nothing to estrogen-induced transactivation. Estrogen-responsive Old World primate cells were transiently co-transfected with IEBP cDNA and an ERE-promoter-reporter construct. After transfection, ERE-directed luciferase activity was reduced 50% compared to vector alone-transfected Old World primate cells. […] Similar results were also obtained following stable transfection of IEBP into Old World primate cells. Increased expression of IEBP in these cells was confirmed by Western blot analyses using an anti-hsp27 antibody.

ERE = test: Electrophoretic mobility shift analysis (EMSA) with idealized ERE as probe; format: binding; details: postnuclear extracts from OWP-IEBP stable transfectant clone 1, recombinant ERα
Experimental: This is believed to be due, at least in part, to enhanced binding of estrogens. To determine whether IEBP also functions as a direct competitor for ERE-binding, the inventors carried out electrophoretic mobility shift analyses (EMSAs) using an idealized ERE as a probe with recombinant ERα and/or postnuclear extracts from OWP-IEBP stable transfectant clone 1 as binding proteins. […] To assess this possibility, coimmunoprecipitation was performed by using anti-ERα and anti-hsp27 antibodies. Antihuman ERα antibodies were used to immunoprecipitate […] proteins in postnuculear extracts of both wild-type and IEBP-stably-transfected cells. The immunoprecipitates were subjected to Western blot analysis by using hsp27 antibodies. Data confirmed association between ERα and hsp27. Similar results were also obtained following initial immunoprecipitation with hsp27, and subsequent ERα blotting.

- effect on ERE-mediated transcription ([1]; transient transfectants, E2 pre-treatment in control cells): stimulated ERE-mediated transcription
Molecule: C[C@]12CC[C@@H]3c4ccc(O)cc4CC[C@H]3[C@@H]1CC[C@@H]2O [E2, 17β-estradiol]
- hsp27 expression (hsp27): stimulated hsp27 expression in a dose-dependent fashion; also recorded: strongly increased hsp27 expression

Molecule: FKBP51: heat-shock protein (hsp)90-associated FK 506-binding immunophilin
- inhibition of ligand binding to glucocorticoid receptors (glucocorticoid receptors): 74%

- reduction of ERE-directed luciferase activity ([1]; transient co-transfection of cDNA and ERE-promoter-reporter construct, compared to vector alone-transfected Old World primate cells): 50%
B1: IEBP: novel hsp27-related intracellular estradiol binding protein from New World primate B95-8 cells, SEQ ID NO:1 (protein, listed as Homo sapiens)
chain: MTERHVPFSLLQSPSWDPFRDWYPHSHLFDQAFGMPRLPEEWSQWFGTSSWPGYVRPLPPTTVEGPAVAAPAYSRALNQQLSSGVSETADRWRVSLDVNHFAPEELTVKTKDGVVEITGKHEERQDEHGFISRCFTRKYSLPPGVDPTQVSPSLSPEGTLTVDAPMSKPATQSNEITIPVTFESRAQLGGPEAAKSDRSAAK
- decrease of ERE luciferase reporter activity [2]: 2-3 fold
- binding to ERE and competition with ERα for ERE (ERE): neither bound to ERE nor competed with the ERα for binding to ERE
